The record followed here is patent US12589090B2, “Compounds and methods for the treatment of degenerative disorders” (Aquilus Pharmaceuticals, Inc., priority 2019, dated 2026).

One data set relates to caspase-3. Description: Caspase-3 immunohistochemistry (optical density) in spinal cord and sciatic nerve of STZ diabetic rats (Example 18). Format: in vivo, Wistar rats. As to the method: Sections from the biopsy specimens (brain and spinal tissue) were formalin-fixed and paraffin-embedded. For IHC examination, slides from the spinal cord and sciatic nervous were evaluated for caspase-3 (cas-3). Serial 3-5-μm thick sections were cut from paraffin embedded tissue blocks. For subsequent IHC staining glass slices were exposed to hot unmasking fluidized citrate buffer pH 6.0 for 15-18 min. After cooling, the glass with the slice was transferred into phosphate-buffered saline (PBS) pH 7.4. The sections were deparaffinized and then rehydrated in alcohol to tris-buffered saline. Endogenous peroxidase activity was blocked using 3% hydrogen peroxide followed by a protein block with 5% goat serum.
Affinity purified monoclonal IgG1, Caspase-3 p11 antibodies (sc-271759; Santa Cruz BioTechnology Inc., Dallas, TX, USA) were used as the primary antibody and applied at a 1:50 dilution 100 μl/glass for 30 min at room temperature. […]
Immunohistochemistry: Sections from the biopsy specimens were formalin-fixed and paraffin-embedded. For immunohistochemistry (IHC) examination, slides from the spinal cord and sciatic nervous were evaluated for caspase-3. […] (4 per group) and three sections from each animal were used for quantitative immunohistochemistry (12 measuring per each group). […]

Data set [1] relates to STZ-induced diabetic rats. Description: STZ-induced diabetic rat model, tactile allodynia (Example 18). Format: in vivo, Wistar rats. How it is done:
(§1) Male Wistar rats (300-350 g) at the beginning of the experiment were used. A single dose (65 mg/kg, i.p.) of Streptozotocin (STZ) with 230 mg/kg (i.p) of nicotinamide were used for induction of diabetes in rats. The STZ was freshly dissolved in citrate buffer. Age matched control rats received the equal volume of the citrate buffer only. Forty days after injection of either STZ or citrate buffer, the rats were tested for diabetes mellitus (DM) using a drop of blood from the tail vein. The estimation of blood glucose level was made using OneTouch Select® Glucometer (LifeScan, Inc., USA). Rats with plasma glucose level>8 mmol/1 (145 mg/dl) were considered as diabetic. Following the diagnosis of DM, age matched healthy control and STZ-induced diabetic rats were divided randomly into four groups each containing six rats. Glucose level was estimated on weekly basis during the experiment.
(§2) Experimental design and drug treatment: Six weeks after the diabetic induction age matched healthy control and STZ-induced diabetic rats were divided randomly into four groups each containing six rats: naïve rats, vehicle (0.5% methylcellulose) treated DM group, 70 mg/kg (in 0.5% methylcellulose) Compound 5-treated DM group, 140 mg/kg (in 0.5% methylcellulose) Compound 5-treated DM group.
Behavioral testing: Tactile allodynia. […] The paw withdrawal thresholds were determined. […] The psychophysical 50% threshold was then calculated.
Data analysis: The results are presented as mean±SEM. In chronic pain experiment, four rats were excluded from the statistical analysis because the paw withdrawal threshold was >8 g (criterion taken from the study. Paw withdrawal threshold data were subjected to analysis of variance (ANOVA, General Linear Model procedure) with Dunnett's post hoc test was applied for between-group pair wise comparisons. Effects of Compound 5 on immunohistochemistry parameters were analyzed by one-way ANOVA (factors: Compound 5 treatment) followed by the Dunnett's test. Data were analyzed using SAS-STAT (SAS v.9.4, SAS Institute Inc., Cary, NC, USA). Data were considered significant at P<0.05.

Data set [2] deals with STZ-induced diabetic rats. Description: STZ-induced diabetic rat model, blood glucose concentration and HbA1c (Example 18). Format: in vivo, Wistar rats. As to the method:
as §1, §2

The nature of data set [3]: Solubility testing (Example 27). Format: physicochemical. Conditions: for solubility in water: as the free acid.
Another data set can be described thus: Dissociation constant. Format: physicochemical.
Data set [4] in a line: In-vivo oral rat pharmacokinetics (Example 15). The note with it: male Sprague-Dawley rats, dose level 10 mg/kg, 0.5% MC, plasma, mean. How it is done: Understanding the pharmacokinetics in species typically employed in preclinical animal testing is an essential component of drug discovery. […] Procedure: Six (6) male Sprague-Dawley rats were used. Fasting was conducted at least 16 hours prior to dose administration. Food was returned at approximately 4 hours post dose. The animals were placed into 2 groups of 3 animals per group. The oral (PO) formulation for Groups 1 & 2 were prepared on the day of dosing at a target concentration of 0.5 mg/mL in 0.5% Methylcellulose (400 cps) to produce a white, homogeneous suspension. Dosing was performed as outlined in Table 1:
Whole blood samples (0.250 mL; K2EDTA anticoagulant) were collected from each animal through a jugular vein catheter. Whole blood samples were collected from all animals pre-dose, and at 0.25, 0.5, 1, 2, 4, 8, 16, and 24 hours after dose administration. All blood samples were immediately placed on ice until processing. Whole blood samples were centrifuged at 2200×g for 10 minutes in a refrigerated centrifuge (5±3° C.) to isolate plasma. The plasma samples were transferred to individual polypropylene vials and immediately placed on dry ice before storage at nominally −20±5° C. The plasma samples sometime later were then thawed and extracted and analyzed by high pressure liquid chromatography (HPLC) coupled to Mass Spectrometry (MS) (Table 2). Pharmacokinetic parameters (Table 3) were estimated using WinNonlin® pharmacokinetic software (Version No. 5.2.1) using a non-compartmental approach consistent with the PO route of administration.

`Cc1ccc(C#Cc2ccc(S(=O)(=O)N[C@H](Cc3c[nH]c4ccccc34)C(=O)O)s2)cc1` [Compound 5, (R)-3-(1H-Indol-3-yl)-2-(5-p-tolylethynyl-thiophene-2-sulfonylamino)-propionic acid]: the “expression of caspase-3 in sciatic nerve” value in the data set with caspase-3 (both doses (70 and 140 mg/kg), vs. vehicle-treated DM group) is “significant reduction”. Also, the “caspase-3 in spinal cord” value in the data set on caspase-3 (vs. vehicle group) is recorded as “statistically significant change”. Besides, in data set [1] (70 mg/kg, 14 days treatment, p<0.05 vs. vehicle), the “tactile allodynia (paw withdrawal threshold), post hoc analysis” value was “confirmed the effect”. Moreover, the “tactile allodynia (paw withdrawal threshold)” value in data set [1] (140 mg/kg, 14 days treatment) is given as “tendency to the analgesic effect”. Further, the “threshold of the nociceptive response (tactile allodynia)” value in data set [1] (after 14 days of treatment) was “significantly decreased”. Further, the “glycosylated hemoglobin (HbA1c) level” value in data set [2] (STZ diabetic rats treated during 2 weeks, vs. untreated DM rats) was “not significantly changed”. Moreover, the blood glucose concentration result in data set [2] (STZ diabetic rats, 70 or 140 mg/kg) is on record as “no significant effects”. In data set [3], the “solubility in DMSO, acetone and methanol” value is listed as “soluble”; the solubility in water result was “poorly soluble”. Further, the dissociation constant result in “Dissociation constant” is reported as “around 3.4”. In data set [4], the AUC(0-inf) (as a rule, the area under the concentration-time curve extrapolated to infinity) was determined as 5150 ng·h/mL; the AUC(0-t) (commonly exposure summed from dosing to a finite time, without extrapolation to infinity) was found to be 5120 ng·h/mL; the peak level (Cmax) was 1580 ng/mL; the half-life (usually the time needed for the level to fall by half in the phase considered) was 76.8 min.
For the molecule `[2H]c1[nH]c2c([2H])c([2H])c([2H])c([2H])c2c1C[C@@H](NS(=O)(=O)c1ccc(C#Cc2ccc(C)cc2)s1)C(=O)O` [Compound 82], in data set [3], the “solubility in DMSO, acetone and methanol” value is “soluble”; the solubility in water result was “poorly soluble”. Moreover, the dissociation constant result in “Dissociation constant” is listed as “around 3.4”.
